Where two headings read alike, the source gives them in different places.
Key:
[1] = test system: βFGF induced corneal neovascularization; conditions: for median inhibition of the area of vascularized cornea: day 8, percent of median control
Method: Pellets for implantation into rabbit corneas were made by mixing 110 μl of saline containing 12 μg of recombinant βFGF (Takeda Pharmaceuticals-Japan) with 40 mg of sucralfate (Bukh Meditec-Denmark); this suspension was added to 80 μl of 12% hydron (Interferon Sciences) in ethanol. 10 μl aliquots of this mixture was then pipetted onto teflon pegs and allowed to dry producing approximately 17 pellets. A pellet was implanted into corneal micropockets of each eye of an anesthetized female New Zealand white rabbit, 2 mm from the limbus followed by topical application of erythromycin ointment onto the surface of the cornea. The animals were fed daily from 2 days post-implantation by gastric lavage with either drug suspended in 0.5% carboxymethyl cellulose or 0.5% carboxymethyl cellulose alone. Thalidomide was purchased from Andrulus Pharmaceutical (Maryland) and the EM-12 and Supidimide were kindly provided by Grunenthal GMBH (Germany). The animals were examined with a slit lamp every other day in a masked manner by the same corneal specialist. The area of corneal neovascularization was determined by measuring with a reticule the vessel length (L) from the limbus and the number of clock hours (C) of limbus involved. A formula was used to determine the area of a circular band segment: C/12*3.1416 [r^2−(r−L)^2] where r=6 mm the measured radius of the rabbit cornea.
Pellets containing βFGF and sucralfate were implanted into micropockets of both corneas of rabbits according to Example II. […] The area of corneal neovascularization was measured from day 4 through day 12. Day 8 measurements were used for comparison between groups. […] Statistical analysis was performed with ANOVA with ranked data to account for interexperimental variation and to guard against a non-normal distribution of data (i.e. outliers) by utilizing a nonparametric method.

[2] = Stability compared with thalidomide; assay type: physicochemical
B16-BL6 melanoma cells = test: B16-BL6 melanoma pulmonary metastasis model; assay type: in vivo, C57B1/6 mice
Method: (§1) B16-BL6 melanoma cells (5×10^4) were injected intravenously into the tail veins of C57B1/6 mice. Three days later, the mice were treated intraperitoneally with increasing doses of thalidomide or 2-phthalimidinoglutaric acid (EM-138) on alternate days. Fourteen days after tumor cell inoculation, the lungs were removed from the mice and the surface pulmonary metastases were counted.
as §1, with “orally” for “intraperitoneally”
B16-BL6 melanoma cells (5×10^4) were injected intravenously into the tail veins of C57B1/6 mice. Three days later, the mice received a gavage treatment with 0.8 mmol/kg of 2-phthalimidinoglutaric acid (EM-138). The mice received either a single treatment, five treatments on alternate days, or one treatement every day for eleven days. Fourteen days after tumor cell inoculation, the lungs were removed from the mice and the surface pulmonary metastases were counted.
B16-BL6 melanoma cells (5×10^4) were injected intravenously into the tail veins of C57B1/6 mice. Three days later, treatment began. The mice received intraperitoneal injections of thalidomide (0.4 mmol/kg), thalidomide (3.0 mmol/kg) or 2-phthalimidinoglutaric acid (EM-138) (0.4 mmol/kg) every day. Fourteen days after tumor cell inoculation, the lungs were removed from the mice and the surface pulmonary metastases were counted.

Crohn's disease = test: Treatment of a patient with Crohn's disease; assay type: in vivo, human; conditions: 100 mg twice a day orally, one week
Method: A patient with Crohn's disease was treated using the methods of the present invention. […] Thalidomide was orally administered to them at a dosage of 100 mg twice a day.

[3] = 0.4 mmol/kg intraperitoneal every day from day 3, lungs day 14

Compound: O=C1CCC(N2Cc3ccccc3C2=O)C(=O)N1 (stereo not shown) [EM-12]
- inhibition in rabbit cornea assay ([1]; 100 mg/kg/day): 21%
- median inhibition of the area of vascularized cornea ([1]; 200 mg/kg orally): 42%
- inhibition in rabbit cornea assay ([1]; 200 mg/kg/day): 43%

Compound: O=C(O)CCC(C(=O)O)N1Cc2ccccc2C1=O (stereo not shown) [EM-138, 2-phthalimidinoglutaric acid]
- stability relative to thalidomide [2]: more stable than thalidomide
- T/C, ratio of lung metastases of treated vs. control animals (B16-BL6 melanoma cells; [3]): 0.2
- reduction of pulmonary metastases (B16-BL6 melanoma cells; [3]): 80%
- inhibition of B16-BL6 metastasis (B16-BL6 melanoma cells; 0.8 mmol/kg/day): over 90%
- inhibition of metastasis after a single administration (B16-BL6 melanoma cells; single administration): significantly inhibits metastasis

Compound: O=C1NCCCC1N1C(=O)c2ccccc2S1(=O)=O (stereo not shown) [Supidimide]
- activity in the rabbit cornea assay (in words) ([1]; 200 mg/kg orally): no activity
- area of corneal neovascularization, % of control ([1]; 200 mg/kg orally, day 8): 107 % of control

Compound: O=C1CCC(N2C(=O)c3ccccc3C2=O)C(=O)N1 (stereo not shown) [thalidomide]
- density of vessel ingrowth ([1]; 200 mg/kg orally): markedly reduced
- onset of inhibition of angiogenesis ([1]; 200 mg/kg orally (FIG. 7)): seen after only two doses
- inhibition of the area of vascularized cornea, range in three experiments ([1]; 200 mg/kg orally, begun day 2, day 8 measurements): 30-51%
- median inhibition of the area of vascularized cornea ([1]; 200 mg/kg orally): 36%
- gastrointestinal symptoms, including diarrhea and cramping (Crohn's disease): lessened
- skin lesion on the lower leg (Crohn's disease): resolved
- inhibition of pulmonary metastases (in words) (B16-BL6 melanoma cells; 0.4 mmol/kg intraperitoneal every day): minimal inhibition
- T/C, ratio of lung metastases of treated vs. control animals (B16-BL6 melanoma cells; [3]): 0.9
- inhibition of pulmonary metastases (in words) (B16-BL6 melanoma cells; 3.0 mmol/kg intraperitoneal every day): inhibited metastases
